Experimental data: US12391679B2, “Benzamide-substituted bicyclic imidazo- and pyrazolo-fused -pyridine, -pyrimide, and -pyridazine compounds for treatment of inflammatory diseases” (ONCO3R Therapeutics BV, priority 2019, dated 2025)

Tests used:
Assay type in all cases: biochemical
SIK1 = target: T1, SIK1 (Homo sapiens, UniProt P57059); test: ADP-Glo kinase assay, SIK1
T1 construct: purchased Carna Biosciences 02-131
Method in brief: (§1)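 ADP-Glo format, luminescent. Room-temperature kinase reaction lasting 120 min, followed by ATP removal (40 min) and ADP detection (30 min); 10 μM staurosporine serves as full-inhibition control, 1% DMSO as uninhibited control.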

SIK2 = target: T2, SIK2 (Homo sapiens, UniProt Q9H0K1); test: ADP-Glo kinase assay, SIK2
T2 construct: purchased ThermoFisher Scientific PV4792
Method in brief: as §1

SIK3 = target: T3, SIK3 (Homo sapiens, UniProt Q9Y2K2); test: ADP-Glo kinase assay, SIK3
T3 construct: purchased SignalChem S12-11G-100
Method in brief: as §1

T3 sequence (Q9Y2K2 59-365 limits assumed): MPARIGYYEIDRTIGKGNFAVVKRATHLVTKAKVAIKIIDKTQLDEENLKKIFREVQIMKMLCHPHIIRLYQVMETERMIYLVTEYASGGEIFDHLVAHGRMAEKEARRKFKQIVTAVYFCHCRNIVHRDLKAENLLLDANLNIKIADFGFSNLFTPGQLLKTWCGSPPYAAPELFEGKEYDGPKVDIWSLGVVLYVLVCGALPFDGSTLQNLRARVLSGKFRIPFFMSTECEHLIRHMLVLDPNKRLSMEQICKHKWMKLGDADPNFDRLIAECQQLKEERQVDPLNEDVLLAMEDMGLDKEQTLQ
T2 sequence (Q9H0K1 whole entry): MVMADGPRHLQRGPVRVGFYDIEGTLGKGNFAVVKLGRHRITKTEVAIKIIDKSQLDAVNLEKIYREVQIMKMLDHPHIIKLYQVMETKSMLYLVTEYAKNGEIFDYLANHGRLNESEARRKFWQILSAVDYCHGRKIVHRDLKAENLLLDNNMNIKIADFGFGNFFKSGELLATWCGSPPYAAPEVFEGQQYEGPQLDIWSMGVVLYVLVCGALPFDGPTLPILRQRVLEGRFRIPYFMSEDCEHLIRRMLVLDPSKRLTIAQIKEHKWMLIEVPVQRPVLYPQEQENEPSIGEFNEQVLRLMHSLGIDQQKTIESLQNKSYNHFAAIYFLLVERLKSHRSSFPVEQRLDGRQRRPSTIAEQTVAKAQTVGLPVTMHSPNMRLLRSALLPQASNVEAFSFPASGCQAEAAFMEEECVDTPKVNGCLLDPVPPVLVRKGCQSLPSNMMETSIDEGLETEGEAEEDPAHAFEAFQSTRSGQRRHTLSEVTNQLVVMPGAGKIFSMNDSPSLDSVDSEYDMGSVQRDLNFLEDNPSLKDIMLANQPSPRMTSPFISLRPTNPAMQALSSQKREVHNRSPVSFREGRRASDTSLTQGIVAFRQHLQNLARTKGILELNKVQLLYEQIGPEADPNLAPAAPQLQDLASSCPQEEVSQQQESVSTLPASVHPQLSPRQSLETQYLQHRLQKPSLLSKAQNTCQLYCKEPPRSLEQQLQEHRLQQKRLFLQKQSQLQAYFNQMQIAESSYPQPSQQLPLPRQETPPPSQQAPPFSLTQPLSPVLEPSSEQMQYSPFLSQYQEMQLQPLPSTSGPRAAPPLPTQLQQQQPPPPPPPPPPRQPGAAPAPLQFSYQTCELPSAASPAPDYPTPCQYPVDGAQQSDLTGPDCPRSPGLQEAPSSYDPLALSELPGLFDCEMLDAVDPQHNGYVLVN
T1 sequence (P57059 whole entry): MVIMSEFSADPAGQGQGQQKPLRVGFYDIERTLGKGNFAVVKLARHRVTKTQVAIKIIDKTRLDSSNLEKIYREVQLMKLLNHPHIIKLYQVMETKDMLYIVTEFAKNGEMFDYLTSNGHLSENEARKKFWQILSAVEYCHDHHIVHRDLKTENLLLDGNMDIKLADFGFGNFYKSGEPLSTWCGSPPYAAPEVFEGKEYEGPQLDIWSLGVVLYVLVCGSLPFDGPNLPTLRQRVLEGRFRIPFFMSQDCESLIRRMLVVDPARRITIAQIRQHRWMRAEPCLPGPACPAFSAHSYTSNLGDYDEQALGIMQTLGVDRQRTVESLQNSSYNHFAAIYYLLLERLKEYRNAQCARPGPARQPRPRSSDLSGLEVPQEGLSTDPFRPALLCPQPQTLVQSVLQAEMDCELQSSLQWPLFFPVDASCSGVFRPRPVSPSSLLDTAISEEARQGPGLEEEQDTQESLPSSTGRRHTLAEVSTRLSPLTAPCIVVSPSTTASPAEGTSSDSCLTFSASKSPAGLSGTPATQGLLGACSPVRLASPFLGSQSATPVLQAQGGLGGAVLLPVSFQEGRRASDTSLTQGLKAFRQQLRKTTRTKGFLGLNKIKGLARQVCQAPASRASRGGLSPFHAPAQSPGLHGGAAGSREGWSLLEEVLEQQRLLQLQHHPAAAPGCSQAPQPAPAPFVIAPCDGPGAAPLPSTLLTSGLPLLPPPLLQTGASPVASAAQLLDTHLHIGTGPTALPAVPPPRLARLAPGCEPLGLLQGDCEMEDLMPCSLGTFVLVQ

SMILES	IC50 (SIK1) [nM]	IC50 (SIK2) [nM]	IC50 (SIK3) [nM]
COc1cc(-c2cnc3cc(C(C)(C)C#N)ccn23)cc(OC(F)F)c1C(=O)N1CC(NC(=O)OC(C)(C)C)C1 [Cpd 94, tert-butyl N-[1-[4-[7-(1-cyano-1-methyl-ethyl)imidazo[1,2-a]pyridin-3-yl]-2-(difluoromethoxy)-6-methoxy-benzoyl]azetidin-3-yl]carbamate]	> 500	> 500	> 500
COc1cc(-c2cnc3cc(C(C)(C)C#N)ccn23)cc(OC(F)F)c1C(=O)N1CC(OC)C1 [Cpd 98, 2-[3-[3-(difluoromethoxy)-5-methoxy-4-(3-methoxyazetidine-1-carbonyl)phenyl]imidazo[1,2-a]pyridin-7-yl]-2-methyl-propanenitrile]	> 500	> 500	10 to 100
COc1cc(-c2cnc3cc(C(C)(C)C#N)ccn23)cc(OC(F)F)c1C(=O)N(C)CC1CC1 [Cpd 82, 4-[7-(1-cyano-1-methyl-ethyl)imidazo[1,2-a]pyridin-3-yl]-N-(cyclopropylmethyl)-2-(difluoromethoxy)-6-methoxy-N-methyl-benzamide]	> 500	> 500	> 500
COc1cc(-c2cnc3cc(C(C)(C)C#N)ccn23)cc(OC(F)F)c1C(=O)NC(C)C(F)F (stereo not drawn) [Cpd 71, 4-[7-(1-cyano-1-methyl-ethyl)imidazo[1,2-a]pyridin-3-yl]-2-(difluoromethoxy)-N-(2,2-difluoro-1-methyl-ethyl)-6-methoxy-benzamide]	> 500	> 500	10 to 100
COCCCNC(=O)c1c(OC)cc(-c2cnc3cc(C(C)(C)C#N)ccn23)cc1OC(F)F [Cpd 45, 4-[7-(1-cyano-1-methyl-ethyl)imidazo[1,2-a]pyridin-3-yl]-2-(difluoromethoxy)-6-methoxy-N-(3-methoxypropyl)benzamide]	> 500	> 500	100 to 500
COc1cc(-c2cnc3cc(C4COCCN4)ccn23)cc(OC(F)F)c1C(=O)NC1CC1 (stereo not drawn) [Cpd 187, N-cyclopropyl-2-(difluoromethoxy)-6-methoxy-4-(7-morpholin-3-ylimidazo[1,2-a]pyridin-3-yl)benzamide]	> 500	> 500	10 to 100
COc1cc(-c2cnc3cc(C(C)(C)C#N)ccn23)cc(OC(F)F)c1C(=O)NC(C1CC1)C(F)(F)F (stereo not drawn) [Cpd 100, 4-[7-(1-cyano-1-methyl-ethyl)imidazo[1,2-a]pyridin-3-yl]-N-(1-cyclopropyl-2,2,2-trifluoro-ethyl)-2-(difluoromethoxy)-6-methoxy-benzamide]	> 500	> 500	> 500
COc1cc(-c2cnc3cc(C(C)(C)C#N)ccn23)cc(OC(F)F)c1C(=O)N(C)C1CC1 [Cpd 84, 4-[7-(1-cyano-1-methyl-ethyl)imidazo[1,2-a]pyridin-3-yl]-N-cyclopropyl-2-(difluoromethoxy)-6-methoxy-N-methyl-benzamide]	> 500	> 500	100 to 500
COc1cc(-c2cnn3cc(C(C)(C)C#N)ccc23)cc(OC)c1C(=O)NC1CC1 [Cpd 259, 4-[6-(1-cyano-1-methyl-ethyl)pyrazolo[1,5-a]pyridin-3-yl]-N-cyclopropyl-2,6-dimethoxy-benzamide]	> 500	> 500	10 to 100
CCN(CC)C(C)c1ccn2c(-c3cc(OC)c(C(=O)NC4CC4)c(OC(F)F)c3)cnc2c1 (stereo not drawn) [Cpd 148, N-cyclopropyl-4-[7-[1-(diethylamino)ethyl]imidazo[1,2-a]pyridin-3-yl]-2-(difluoromethoxy)-6-methoxy-benzamide]	> 500	> 500	10 to 100
COc1cc(-c2cnc3cc(C(C)(C)C#N)ccn23)cc(OC(F)F)c1C(=O)N1CC2(COC2)C1 [Cpd 51, 2-[3-[3-(difluoromethoxy)-5-methoxy-4-(2-oxa-6-azaspiro[3.3]heptane-6-carbonyl)phenyl]imidazo[1,2-a]pyridin-7-yl]-2-methyl-propanenitrile]	> 500	> 500	10 to 100
COc1cc(-c2cnn3cc(C4(C(=O)N5CCOCC5)CCC4)ccc23)cc(OC(F)F)c1C(=O)N[C@@H]1C[C@@H]1F [Cpd 274, 2-(difluoromethoxy)-N-[(1R,2S)-2-fluorocyclopropyl]-6-methoxy-4-[6-[1-(morpholine-4-carbonyl)cyclobutyl]pyrazolo[1,5-a]pyridin-3-yl]benzamide]	> 500	> 500	100 to 500
COc1cc(-c2cnc3cc(C(C)(C)C#N)ccn23)cc(OC(F)F)c1C(=O)N1CCS(=O)(=O)CC1 [Cpd 38, 2-[3-[3-(difluoromethoxy)-4-(1,1-dioxo-1,4-thiazinane-4-carbonyl)-5-methoxy-phenyl]imidazo[1,2-a]pyridin-7-yl]-2-methyl-propanenitrile]	> 500	> 500	> 500
COc1cc(-c2cnc3cc(C(C)(C)C#N)ccn23)cc(OC(F)F)c1C(=O)N1CC2(CN(C)C2)C1 [Cpd 99, 2-[3-[3-(difluoromethoxy)-5-methoxy-4-(6-methyl-2,6-diazaspiro[3.3]heptane-2-carbonyl)phenyl]imidazo[1,2-a]pyridin-7-yl]-2-methyl-propanenitrile]	> 500	> 500	100 to 500
COc1cc(-c2cnc3cc(C(C)(C)N4CCOCC4)ccn23)cc(OC(F)F)c1C(=O)NC1CC1 [Cpd 226, N-cyclopropyl-2-(difluoromethoxy)-6-methoxy-4-[7-(1-methyl-1-morpholino-ethyl)imidazo[1,2-a]pyridin-3-yl]benzamide]	> 500	> 500	10 to 100
COc1cn2c(-c3cc(OC)c(C(=O)NC4CC4)c(OC(F)F)c3)cnc2cc1C1COC1 [Cpd 215, N-cyclopropyl-2-(difluoromethoxy)-6-methoxy-4-[6-methoxy-7-(oxetan-3-yl)imidazo[1,2-a]pyridin-3-yl]benzamide]	100 to 500	100 to 500	10 to 100
COc1cc(-c2cnc3cc(C(C)(O)CN(C)CCO)ccn23)cc(OC(F)F)c1C(=O)NC1CC1 (stereo not drawn) [Cpd 209, N-cyclopropyl-2-(difluoromethoxy)-4-[7-[1-hydroxy-2-[2-hydroxyethyl(methyl)amino]-1-methyl-ethyl]imidazo[1,2-a]pyridin-3-yl]-6-methoxy-benzamide]	> 500	> 500	10 to 100
COc1cc(-c2cnc3cc(C4CCOCC4)ncn23)cc(OC(F)F)c1C(=O)NC1CC1 [Cpd 109, N-cyclopropyl-2-(difluoromethoxy)-6-methoxy-4-(7-tetrahydropyran-4-ylimidazo[1,2-c]pyrimidin-3-yl)benzamide]	> 500	> 500	> 500
COc1cc(-c2cnc3cc(C4(C)COCCO4)ccn23)cc(OC(F)F)c1C(=O)NC1CC1 (stereo not drawn) [Cpd 220, N-cyclopropyl-2-(difluoromethoxy)-6-methoxy-4-[7-(2-methyl-1,4-dioxan-2-yl)imidazo[1,2-a]pyridin-3-yl]benzamide]	> 500	> 500	10 to 100
COc1cc(-c2cnn3cc(C4(NCC(F)F)CCC4)ccc23)cc(OC(F)F)c1C(=O)N[C@@H]1C[C@@H]1F [Cpd 271, 4-[6-[1-(2,2-difluoroethylamino)cyclobutyl]pyrazolo[1,5-a]pyridin-3-yl]-2-(difluoromethoxy)-N-[(1R,2S)-2-fluorocyclopropyl]-6-methoxy-benzamide]	> 500	> 500	10 to 100
